Experimental data as given in PubChem BioAssay AID1963981 (Molecular Pharmacology Branch, DTP, NCI, 2024).

Tested on: 354836-022-R-J1-PDC multicell spheroid viability
Assay: Anticancer human tumor 354836-022-R-J1-PDC patient-derived head and neck squamous cell carcinoma cell line growth inhibition [PI3K]
Details: for IC50: curve of first compound; for viability, T/C: stronger effect = lower value
Outline: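 Agents were dosed from a top concentration near clinical Cmax (otherwise 10 microM) in half-log decrements, alone or combined with PI3K inhibitors. The spheroids contain tumor cells plus endothelial (HUVEC) and MSC stroma; viability is measured.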
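Also: spheroids exposed to agents for seven days before the viability read.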

With CNC(=O)c1ccc(N2C(=S)N(c3ccc(C#N)c(C(F)(F)F)c3)C(=O)C2(C)C)cc1F + CC(Nc1ncnc2nc[nH]c12)c1cc2cccc(Cl)c2c(=O)n1-c1ccccc1 as the molecule, how does the IC50 (second compound 0.0316 µM) read?
Its IC50 is greater than 10 µM.

What about the IC50 (second compound 0.1 µM) of the same molecule?
Its IC50 is greater than 10 µM.

And the IC50 (second compound 0.316 µM)?
The IC50 was greater than 10 µM.

And the IC50 (second compound 1 µM)?
Its IC50 is greater than 10 µM.

And the IC50 (second compound 3.16 µM)?
The IC50 was greater than 10 µM.

And the IC50 (second compound 10 µM)?
The IC50 was greater than 10 µM.

What about the viability, T/C (second compound 0.0316 µM, first compound 0.0316 µM) of the same molecule?
The viability, T/C was 97.4%.

And the viability, T/C (second compound 0.0316 µM, first compound 0.1 µM)?
Its viability, T/C is 99.1%.

And the viability, T/C (second compound 0.0316 µM, first compound 0.316 µM)?
The viability, T/C was 92.9%.

And the viability, T/C (second compound 0.0316 µM, first compound 1 µM)?
The viability, T/C was 93%.

And the viability, T/C (second compound 0.0316 µM, first compound 3.16 µM)?
The viability, T/C was 109%.

What about the viability, T/C (second compound 0.0316 µM, first compound 10 µM) of the same molecule?
The viability, T/C was 95.8%.

And the viability, T/C (second compound 0.1 µM, first compound 0.0316 µM)?
The viability, T/C was 95.2%.

What about the viability, T/C (second compound 0.1 µM, first compound 0.1 µM) of the same molecule?
Its viability, T/C is 113%.

And the viability, T/C (second compound 0.1 µM, first compound 0.316 µM)?
Its viability, T/C is 109%.

And the viability, T/C (second compound 0.1 µM, first compound 1 µM)?
The viability, T/C was 104%.

And the viability, T/C (second compound 0.1 µM, first compound 3.16 µM)?
The viability, T/C was 94.4%.

And the viability, T/C (second compound 0.1 µM, first compound 10 µM)?
The viability, T/C was 93.8%.

What about the viability, T/C (second compound 0.316 µM, first compound 0.0316 µM) of the same molecule?
Its viability, T/C is 100%.

What about the viability, T/C (second compound 0.316 µM, first compound 0.1 µM) of the same molecule?
The viability, T/C was 97.8%.

What about the viability, T/C (second compound 0.316 µM, first compound 0.316 µM) of the same molecule?
Its viability, T/C is 97.6%.

And the viability, T/C (second compound 0.316 µM, first compound 1 µM)?
The viability, T/C was 109%.

What about the viability, T/C (second compound 0.316 µM, first compound 3.16 µM) of the same molecule?
The viability, T/C was 105%.

What about the viability, T/C (second compound 0.316 µM, first compound 10 µM) of the same molecule?
Its viability, T/C is 91.5%.

What about the viability, T/C (second compound 1 µM, first compound 0.0316 µM) of the same molecule?
Its viability, T/C is 97%.

And the viability, T/C (second compound 1 µM, first compound 0.1 µM)?
The viability, T/C was 92.4%.

What about the viability, T/C (second compound 1 µM, first compound 0.316 µM) of the same molecule?
The viability, T/C was 95.9%.

And the viability, T/C (second compound 1 µM, first compound 1 µM)?
Its viability, T/C is 117%.

What about the viability, T/C (second compound 1 µM, first compound 3.16 µM) of the same molecule?
Its viability, T/C is 93.6%.

And the viability, T/C (second compound 1 µM, first compound 10 µM)?
Its viability, T/C is 95%.

And the viability, T/C (second compound 3.16 µM, first compound 0.0316 µM)?
Its viability, T/C is 105%.

What about the viability, T/C (second compound 3.16 µM, first compound 0.1 µM) of the same molecule?
Its viability, T/C is 106%.

What about the viability, T/C (second compound 3.16 µM, first compound 0.316 µM) of the same molecule?
Its viability, T/C is 105%.

And the viability, T/C (second compound 3.16 µM, first compound 1 µM)?
Its viability, T/C is 108%.

What about the viability, T/C (second compound 3.16 µM, first compound 3.16 µM) of the same molecule?
The viability, T/C was 85.2%.

And the viability, T/C (second compound 3.16 µM, first compound 10 µM)?
The viability, T/C was 95.5%.

And the viability, T/C (second compound 10 µM, first compound 0.0316 µM)?
The viability, T/C was 89.3%.

And the viability, T/C (second compound 10 µM, first compound 0.1 µM)?
Its viability, T/C is 86.5%.

And the viability, T/C (second compound 10 µM, first compound 0.316 µM)?
Its viability, T/C is 94.5%.

What about the viability, T/C (second compound 10 µM, first compound 1 µM) of the same molecule?
The viability, T/C was 97%.

What about the viability, T/C (second compound 10 µM, first compound 3.16 µM) of the same molecule?
The viability, T/C was 95.3%.

And the viability, T/C (second compound 10 µM, first compound 10 µM)?
Its viability, T/C is 86.6%.

Cn1cnc2c(F)c(Nc3ccc(Br)cc3Cl)c(C(=O)NOCCO)cc21 + CC(Nc1ncnc2nc[nH]c12)c1cc2cccc(Cl)c2c(=O)n1-c1ccccc1 was tested. Which IC50 (second compound 0.0316 µM) did it give?
The IC50 was greater than 3 µM.

And the IC50 (second compound 0.1 µM)?
The IC50 was 2.65 µM.

What about the IC50 (second compound 0.316 µM) of the same molecule?
The IC50 was 2.67 µM.

And the IC50 (second compound 1 µM)?
The IC50 was greater than 3 µM.

And the IC50 (second compound 3.16 µM)?
Its IC50 is greater than 3 µM.

And the IC50 (second compound 10 µM)?
Its IC50 is greater than 3 µM.

What about the viability, T/C (second compound 0.0316 µM, first compound 0.00949 µM) of the same molecule?
The viability, T/C was 94.3%.

What about the viability, T/C (second compound 0.0316 µM, first compound 0.03 µM) of the same molecule?
Its viability, T/C is 90.4%.

What about the viability, T/C (second compound 0.0316 µM, first compound 0.0949 µM) of the same molecule?
The viability, T/C was 87.4%.

What about the viability, T/C (second compound 0.0316 µM, first compound 0.3 µM) of the same molecule?
Its viability, T/C is 71.9%.

What about the viability, T/C (second compound 0.0316 µM, first compound 0.949 µM) of the same molecule?
The viability, T/C was 69.4%.

And the viability, T/C (second compound 0.0316 µM, first compound 3 µM)?
Its viability, T/C is 49.4%.

What about the viability, T/C (second compound 0.1 µM, first compound 0.00949 µM) of the same molecule?
The viability, T/C was 89.9%.

And the viability, T/C (second compound 0.1 µM, first compound 0.03 µM)?
The viability, T/C was 80.4%.

What about the viability, T/C (second compound 0.1 µM, first compound 0.0949 µM) of the same molecule?
Its viability, T/C is 70.3%.

What about the viability, T/C (second compound 0.1 µM, first compound 0.3 µM) of the same molecule?
The viability, T/C was 81.3%.

What about the viability, T/C (second compound 0.1 µM, first compound 0.949 µM) of the same molecule?
The viability, T/C was 64.6%.

And the viability, T/C (second compound 0.1 µM, first compound 3 µM)?
Its viability, T/C is 47.7%.

And the viability, T/C (second compound 0.316 µM, first compound 0.00949 µM)?
The viability, T/C was 89.7%.

And the viability, T/C (second compound 0.316 µM, first compound 0.03 µM)?
The viability, T/C was 83.9%.

And the viability, T/C (second compound 0.316 µM, first compound 0.0949 µM)?
The viability, T/C was 94.2%.

And the viability, T/C (second compound 0.316 µM, first compound 0.3 µM)?
The viability, T/C was 72.1%.

And the viability, T/C (second compound 0.316 µM, first compound 0.949 µM)?
The viability, T/C was 74.8%.

And the viability, T/C (second compound 0.316 µM, first compound 3 µM)?
Its viability, T/C is 46.6%.

And the viability, T/C (second compound 1 µM, first compound 0.00949 µM)?
The viability, T/C was 90.5%.

And the viability, T/C (second compound 1 µM, first compound 0.03 µM)?
The viability, T/C was 83.8%.

And the viability, T/C (second compound 1 µM, first compound 0.0949 µM)?
Its viability, T/C is 79.6%.

And the viability, T/C (second compound 1 µM, first compound 0.3 µM)?
Its viability, T/C is 81.2%.

And the viability, T/C (second compound 1 µM, first compound 0.949 µM)?
Its viability, T/C is 74.5%.

What about the viability, T/C (second compound 1 µM, first compound 3 µM) of the same molecule?
Its viability, T/C is 55.6%.

And the viability, T/C (second compound 3.16 µM, first compound 0.00949 µM)?
Its viability, T/C is 99.5%.

What about the viability, T/C (second compound 3.16 µM, first compound 0.03 µM) of the same molecule?
The viability, T/C was 86.9%.

What about the viability, T/C (second compound 3.16 µM, first compound 0.0949 µM) of the same molecule?
Its viability, T/C is 71.1%.

And the viability, T/C (second compound 3.16 µM, first compound 0.3 µM)?
Its viability, T/C is 88.8%.

What about the viability, T/C (second compound 3.16 µM, first compound 0.949 µM) of the same molecule?
The viability, T/C was 81%.

What about the viability, T/C (second compound 3.16 µM, first compound 3 µM) of the same molecule?
Its viability, T/C is 63.5%.

And the viability, T/C (second compound 10 µM, first compound 0.00949 µM)?
Its viability, T/C is 85.5%.

And the viability, T/C (second compound 10 µM, first compound 0.03 µM)?
Its viability, T/C is 89.2%.

What about the viability, T/C (second compound 10 µM, first compound 0.0949 µM) of the same molecule?
Its viability, T/C is 87.1%.

And the viability, T/C (second compound 10 µM, first compound 0.3 µM)?
Its viability, T/C is 77.1%.

And the viability, T/C (second compound 10 µM, first compound 0.949 µM)?
Its viability, T/C is 68.2%.

And the viability, T/C (second compound 10 µM, first compound 3 µM)?
The viability, T/C was 54.8%.
